Experimental data taken from patent US3943154A, “Acylamides of beta-cyano-ethenesulfonyl substituted aminoarenes” (Sanitized Incorporated, priority 1973, dated 1976).
Values after ≈ are worked out from the molar mass of the structure shown. Where two headings read alike, the source gives them in different places.

What was measured:
Format in all cases: cell-based
[1] = tested on: Aspergillus niger ATCC 6257; assay: agar incorporation test, antifungal activity; conditions: Aspergillus niger, ATCC6257, 96 h, lowest concentration showing no growth or sporulation, four days at 28° C, read-out: Antifungal Activity A. niger, minimum inhibitory concentration
Method: The anti-fungal activity of the test compounds was determined employing the "agar incorporation" technique, utilizing spores from Aspergillus niger ATCC 6257 as a representative organism. Test solutions were prepared as described above in acetone or dimethylsulfoxide. A source of carbon agar such as Mycophil Agar was used. The agar was melted and cooled and placed in a constant temperature water bath at 45° C + 3° C. About 13-14 ml of the agar was then poured into a sterile Petri dish, the required amount of test solution to give the desired concentration immediately added thereto, and the dish rotated and swirled by hand to obtain a uniform mixture before the agar hardened.
The hardened plates were inoculated with the test organism by fishing spores from a 7-14 day old slant with the inocculating needle and spotting the spores on the plates, usually in several places. The inoculated plates were incubated for four days in an incubator maintained at 28° C +2° C and with a relative humidity of 95%+.
The lowest concentration of each test compound showing no growth or sporulation of the test organism was taken as the minimum inhibitory concentration and is reported in the following tabulation.
(§1) The button assay and agar incorporation tests were also utilized to determine the corresponding inhibitory concentrations of various control materials, viz., the following well known commercial antimicrobials and fungicides: hexachlorophene, tribromosalicylanilide, trichlorocarbanilide,Captan (N-(trichloromethylthio)4cyclohexene-1,2-dicarboximide) and Zineb (zinc ethylenebis[dithiocarbamate]). The minimum inhibitory concentration of each of the various control materials against the respective organisms is indicated in Table IV below: […]

[2] = tested on: Bacillus subtilis ATCC 9525; assay: button assay, antibacterial activity; conditions: Bacillus subtilis, ATCC9525, lowest concentration showing a clear zone of inhibition, 24 hours at 37° C, read-out: Antibacterial Activity B.subtilis, minimum inhibitory concentration
Method: (§2) In the test program, the minimum inhibitory concentrations of the respective test compounds against various Gram positive and Gram negative bacteria were determined, employing the "button assay" method. The test organisms utilized were standard cultures of Staphylococcus aureus ATCC 6538 DR, a penicillin resistant Gram positive bacterium; Bacillus subtilis ATCC 9525, a spore-forming Gram positive bacillus; and Salmonella typhosa ATCC 6539, a Gram negative bacterium.
(§3) In the tests the respective compounds were dissolved in a suitable solvent, usually acetone or dimethylsulfoxide, to give solutions with known concentrations of active material. The highest concentration was ordinarily 1000 ppm (parts per million) [0.1%], and dilutions were made in suitable steps down to 1 ppm. Penicillin test buttons of filter paper having a diameter of 13 mm (socalled "Peniassay" buttons) were added to each solution within a test tube and left submerged for five minutes. They were then removed and left to dry on paper towels under sterile conditions. A laminar flow sterile cabinet equipped with ultraviolet lamps operating under positive air pressure was utilized for this purpose.
(§4) An 18-24 hour old nutrient broth culture (standard 1.5% nutrient agar) prepared in conventional manner from a slant and having passed through at least three consecutive daily transfers was used for inoculation. Melted and cooled sterile agar (45° C) was inoculated with the respective broth cultures by addition of 20 ml broth per liter of agar. The agar was then dispensed into Petri dishes (20 ml per plate) under sterile conditions and allowed to harden.
(§5) The test buttons were placed on the surface of the hardened agar and the plates incubated for 24 hours at 37° C. Where, on inspection, a clear zone of inhibition appeared around the button, inhibition of growth was presumed. Where growth touched the button there was no inhibition. For each of the test compounds, the lowest concentration showing a clear zone is reported as the inhibitory concentration in the following table.
as §1

[3] = tested on: Staphylococcus aureus ATCC 6538 DR; assay: button assay, antibacterial activity; conditions: Staphylococcus aureus, ATCC6538, 24 h, read-out: Antibacterial Activity S.aureus, minimum inhibitory concentration
Method: as §2, §3, §4
as §5, with “table. […]” for “table.”

[4] = tested on: Salmonella typhosa ATCC 6539; assay: button assay, antibacterial activity; conditions: Salmonella enterica, read-out: Antibacterial Activity S.typhosa, minimum inhibitory concentration
Method: as §2
as §3, with “The” for “In the tests the respective compounds were dissolved in a suitable solvent, usually acetone or dimethylsulfoxide, to give solutions with known concentrations of active material. The”
as §4
as §5, with “table. […]” for “table.”

CC(=O)Nc1ccc(S(=O)(=O)C=CC#N)cc1 [3-(4-acetamidobenzenesulfonyl)acrylonitrile, reference compound]
MIC [1]: > 1000 µg/mL
MIC [2]: 20 µg/mL (≈ 79.9 µM)
MIC [3]: 50 µg/mL (≈ 200 µM)
MIC ([4]; 24 h): 20 µg/mL (≈ 79.9 µM)

N#CC=CS(=O)(=O)c1ccc(N)cc1 [3-(4-aminobenzenesulfonyl)acrylonitrile, reference compound]
MIC [1]: 300 µg/mL (≈ 1440 µM)
MIC [2]: 20 µg/mL (≈ 96 µM)
MIC [3]: 20 µg/mL (≈ 96 µM)
MIC ([4]; 24 h): 20 µg/mL (≈ 96 µM)

O=C1C2CC=CCC2C(=O)N1SC(Cl)(Cl)Cl (stereo not drawn) [Captan, N-(trichloromethylthio)4cyclohexene-1,2-dicarboximide, reference compound]
MIC [1]: 300 µg/mL (≈ 998 µM)
MIC [2]: 100 µg/mL (≈ 333 µM)
MIC [3]: 25 µg/mL (≈ 83.2 µM)
MIC ([4]; button assay, lowest concentration showing a clear zone of inhibition, 24 hours at 37° C): 25 µg/mL (≈ 83.2 µM)

CS(=O)(=O)Nc1ccc(S(=O)(=O)C=CC#N)cc1 [Example 1, 3-(4-methanesulfonylamidobenzenesulfonyl)acrylonitrile]
MIC [1]: > 1000 µg/mL
MIC [2]: 100 µg/mL (≈ 349 µM)
MIC [3]: 300 µg/mL (≈ 1050 µM)
MIC ([4]; 24 h): 1000 µg/mL (≈ 3490 µM)

CCS(=O)(=O)Nc1ccc(S(=O)(=O)C=CC#N)cc1 [Example 2, 3-(4-ethanesulfonamidobenzenesulfonyl)acrylonitrile]
MIC [1]: > 1000 µg/mL
MIC [2]: 20 µg/mL (≈ 66.6 µM)
MIC [3]: 100 µg/mL (≈ 333 µM)
MIC ([4]; 24 h): 20 µg/mL (≈ 66.6 µM)

CCCCS(=O)(=O)Nc1ccc(S(=O)(=O)C=CC#N)cc1 [Example 3, 3-(4-butanesulfonamidobenzenesulfonyl)acrylonitrile]
MIC [1]: > 1000 µg/mL
MIC [2]: 20 µg/mL (≈ 60.9 µM)
MIC [3]: 50 µg/mL (≈ 152 µM)
MIC ([4]; 24 h): 50 µg/mL (≈ 152 µM)

CCCCCCCCCCCCCCCCS(=O)(=O)Nc1ccc(S(=O)(=O)C=CC#N)cc1 [Example 4, 3-([…])ACRYLONITRILE]
MIC [1]: 500 µg/mL (≈ 1010 µM)
MIC [2]: 20 µg/mL (≈ 40.3 µM)
MIC [3]: 20 µg/mL (≈ 40.3 µM)
MIC ([4]; 24 h): 50 µg/mL (≈ 101 µM)

C=CS(=O)(=O)Nc1ccc(S(=O)(=O)C=CC#N)cc1 [Example 9, 3-(4-[…])ACRYLONITRILE]
MIC [1]: 100 µg/mL (≈ 335 µM)
MIC [2]: 10 µg/mL (≈ 33.5 µM)
MIC [3]: 20 µg/mL (≈ 67 µM)
MIC ([4]; 24 h): 50 µg/mL (≈ 168 µM)

N#CC=CS(=O)(=O)c1ccc(NS(=O)(=O)C=Cc2ccccc2)cc1 [Example 10, 3-[4-(2-phenylethenesulfonamido)benzenesulfonyl]acrylonitrile]
MIC [1]: > 1000 µg/mL
MIC [2]: 5 µg/mL (≈ 13.4 µM)
MIC [3]: 5 µg/mL (≈ 13.4 µM)
MIC ([4]; 24 h): 5 µg/mL (≈ 13.4 µM)

N#CC=CS(=O)(=O)c1ccc(NS(=O)(=O)c2ccccc2)cc1 [Example 11, 3-(4-benzene-sulfonamidobenzenesulfonyl)acrylonitrile]
MIC [1]: > 1000 µg/mL
MIC [2]: 50 µg/mL (≈ 144 µM)
MIC [3]: 20 µg/mL (≈ 57.4 µM)
MIC ([4]; 24 h): 50 µg/mL (≈ 144 µM)

Cc1ccc(S(=O)(=O)C=CC#N)cc1NS(=O)(=O)c1ccccc1 [Example 12, 3-(3-benzenesulfonamido-4-methylbenzenesulfonyl)acrylonitrile]
MIC [1]: > 1000 µg/mL
MIC [2]: 100 µg/mL (≈ 276 µM)
MIC [3]: 100 µg/mL (≈ 276 µM)
MIC ([4]; 24 h): 100 µg/mL (≈ 276 µM)

Cc1ccc(S(=O)(=O)Nc2ccc(S(=O)(=O)C=CC#N)cc2)cc1 [Example 13, 3-[4-(4-methylbenzenesulfonamido)benzenesulfonyl]acrylonitrile]
MIC [1]: > 1000 µg/mL
MIC [2]: 5 µg/mL (≈ 13.8 µM)
MIC [3]: 5 µg/mL (≈ 13.8 µM)
MIC ([4]; 24 h): 5 µg/mL (≈ 13.8 µM)

Cc1ccccc1S(=O)(=O)Nc1ccc(S(=O)(=O)C=CC#N)cc1 [Example 16, 3-[4-(2-METHYLBENZENESULFONAMIDO)BENZENESULFONYL]ACRYLONITRILE]
MIC [1]: > 1000 µg/mL
MIC [2]: 20 µg/mL (≈ 55.2 µM)
MIC [3]: 20 µg/mL (≈ 55.2 µM)
MIC ([4]; 24 h): 20 µg/mL (≈ 55.2 µM)

CCCCCCCCCCCCc1ccc(S(=O)(=O)Nc2ccc(S(=O)(=O)C=CC#N)cc2)cc1 [Example 17]
MIC [1]: 300 µg/mL (≈ 581 µM)
MIC [2]: 10 µg/mL (≈ 19.4 µM)
MIC [3]: 5 µg/mL (≈ 9.68 µM)
MIC ([4]; 24 h): 10 µg/mL (≈ 19.4 µM)

Cc1cc(C)c(S(=O)(=O)Nc2ccc(S(=O)(=O)C=CC#N)cc2)c(C)c1 [Example 18, 3-[4-(2,4,6-trimethylbenzenesulfonamido)benzenesulfonyl]acrylonitrile]
MIC [1]: 100 µg/mL (≈ 256 µM)
MIC [2]: 10 µg/mL (≈ 25.6 µM)
MIC [3]: 5 µg/mL (≈ 12.8 µM)
MIC ([4]; 24 h): 10 µg/mL (≈ 25.6 µM)
